Assay results taken from patent US20160022714A1, “O-GLCNACYLATION TREATMENT FOR ISCHEMIC BRAIN INJURY” (THE RESEARCH FOUNDATION FOR MENTAL HYGIENE, INC., priority 2014, published 2016).
“Also recorded” adds a separate entry of the source.

Key:
[1] = test system: MCAO mouse model (cerebral ischemia-reperfusion injury); experiment: Scores of motor deficits (5-point neurological scoring) after MCAO for 2 hrs and reperfusion for 1 hr; type: in vivo; settings: vs. saline
[2] = test system: MCAO mouse model (cerebral ischemia-reperfusion injury); experiment: Brain infarct size by TTC staining after MCAO for 2 hrs followed by reperfusion for 24 hrs; type: in vivo; settings: vs. saline; for infarct size / ischemia-induced brain damage: DON 2.6 μg/mouse, glucosamine 10 mg/mouse, thiamet-G 160 μg/mouse prior to ischemia, 24 hrs after ischemia-reperfusion
[3] = test system: O-GlcNAcylation of brain proteins; experiment: Western blots for O-GlcNAcylation of brain (striatum) homogenates from drug-treated mice 2 hrs after MCAO; type: in vivo, mouse; settings: for brain O-GlcNAcylation level (change): mice treated prior to ischemia: DON 2.6 μg/mouse, glucosamine 10 mg/mouse, thiamet-G 160 μg/mouse, brain samples 2 hrs after ischemic insult
[4] = DON 2.6 μg/mouse, glucosamine 10 mg/mouse, thiamet-G 160 μg/mouse prior to ischemia, one hour after ischemia-reperfusion

N[C@H]1C(O)O[C@H](CO)[C@@H](O)[C@@H]1O (stereo partly shown) [glucosamine]
motor deficits [1, 4]: ameliorated; also recorded: reduced
infarct size / ischemia-induced brain damage [2]: ameliorated; also recorded: reduced
brain O-GlcNAcylation level (change) [3]: moderate elevation

[N-]=[N+]=CC(=O)CC[C@H](N)C(=O)O [DON, 6-diazo-5-oxonorleucine]
motor deficits [1, 4]: aggravated; also recorded: increased
infarct size / ischemia-induced brain damage [2]: aggravated; also recorded: increased
brain O-GlcNAcylation level (change) [3]: reduction; also recorded: reduced

CCN=C1N[C@@H]2[C@@H](O)[C@H](O)[C@@H](CO)O[C@@H]2S1 [thiamet-G]
motor deficits [1, 4]: more severe; also recorded: worsened
motor deficits ([1]; thiamet-G 0.1 μg/mouse, icy injection, MCAO 2 hrs, reperfusion 1 hr): reduced
infarct size / ischemia-induced brain damage [2]: more severe brain damage; also recorded: worsened
infarct size ([2]; thiamet-G 0.1 μg/mouse, icy injection, MCAO 2 hrs, reperfusion 24 hrs): reduced
brain O-GlcNAcylation level (change) [3]: elevation
elevation of O-GlcNAcylation ([3]; thiamet-G 0.1 μg/mouse, icy injection 24 hrs before MCAO, compared with 10 mg glucosamine/mouse i.p.): comparable elevation
elevation of O-GlcNAcylation ([3]; thiamet-G initial dose 160 μg/mouse, 2 hrs after MCAO): > 6 fold
